Reference: the NIST ThermoML archive (doi:10.1016/j.jct.2018.07.023)
Values joined by “and” are separate entries in the source; they are usually repeats but may differ in a detail not shown here. Identical values can stand only once.

Key:
[1] = Molar enthalpy of transition or fusion; details: Crystal; DSC
[2] = molar enthalpy of vaporization or sublimation; details: Static calorimetry

COc1cc(C=O)ccc1O [vanillin]
Details	Molar enthalpy of transition or fusion [kcal/mol]
[1]	5.47

Details	molar enthalpy [kcal/mol]	vapor or sublimation pressure
303.13 K, Crystal, Calculated from knudsen effusion weight loss	–	6.6e-05 kPa and 6.5e-05 kPa
305.32 K, Crystal, Calculated from knudsen effusion weight loss	–	8.9e-05 kPa and 8.8e-05 kPa
307.19 K, Crystal, Calculated from knudsen effusion weight loss	–	0.000112 kPa and 0.000113 kPa and 0.000114 kPa
309.13 K, Crystal, Calculated from knudsen effusion weight loss	–	0.000144 kPa and 0.000142 kPa and 0.000145 kPa
311.35 K, Crystal, Calculated from knudsen effusion weight loss	–	0.000185 kPa and 0.000182 kPa and 0.000187 kPa
313.2 K, Crystal, Calculated from knudsen effusion weight loss	–	0.000235 kPa and 0.000234 kPa and 0.000236 kPa
315.11 K, Crystal, Calculated from knudsen effusion weight loss	–	0.000292 kPa and 0.00029 kPa and 0.000294 kPa
317.29 K, Crystal, Calculated from knudsen effusion weight loss	–	0.000384 kPa and 0.000383 kPa
319.19 K, Crystal, Calculated from knudsen effusion weight loss	–	0.000472 kPa and 0.000474 kPa and 0.000478 kPa
320.95 K, Crystal, Closed cell (Static) method	–	0.00058 kPa
321.11 K, Crystal, Calculated from knudsen effusion weight loss	–	0.000597 kPa and 0.000586 kPa and 0.000599 kPa
322.92 K, Crystal, Closed cell (Static) method	–	0.00072 kPa
323.29 K, Crystal, Calculated from knudsen effusion weight loss	–	0.000759 kPa and 0.00075 kPa and 0.000765 kPa
324.92 K, Metastable liquid, Closed cell (Static) method	–	0.00192 kPa
324.98 K, Crystal, Closed cell (Static) method	–	0.00092 kPa
325.2 K, Crystal, Calculated from knudsen effusion weight loss	–	0.000955 kPa and 0.000953 kPa and 0.00094 kPa
326.9 K, Crystal, Closed cell (Static) method	–	0.00114 kPa
326.91 K, Metastable liquid, Closed cell (Static) method	–	0.00226 kPa
328.87 K, Metastable liquid, Closed cell (Static) method	–	0.00268 kPa
328.94 K, Crystal, Closed cell (Static) method	–	0.00143 kPa
330.87 K, Metastable liquid, Closed cell (Static) method	–	0.00316 kPa
330.89 K, Crystal, Closed cell (Static) method	–	0.00175 kPa
332.83 K, Metastable liquid, Closed cell (Static) method	–	0.00373 kPa
332.87 K, Crystal, Closed cell (Static) method	–	0.00215 kPa
334.8 K, Metastable liquid, Closed cell (Static) method	–	0.00439 kPa
334.84 K, Crystal, Closed cell (Static) method	–	0.00266 kPa
336.81 K, Metastable liquid, Closed cell (Static) method	–	0.00517 kPa
336.83 K, Crystal, Closed cell (Static) method	–	0.0033 kPa
338.81 K, Metastable liquid, Closed cell (Static) method	–	0.00609 kPa
338.83 K, Crystal, Closed cell (Static) method	–	0.00407 kPa
340.8 K, Metastable liquid, Closed cell (Static) method	–	0.00717 kPa
340.83 K, Crystal, Closed cell (Static) method	–	0.00502 kPa
342.78 K, Metastable liquid, Closed cell (Static) method	–	0.00834 kPa
342.8 K, Crystal, Closed cell (Static) method	–	0.0061 kPa
344.77 K, Crystal, Closed cell (Static) method	–	0.00747 kPa
344.79 K, Metastable liquid, Closed cell (Static) method	–	0.00978 kPa
346.69 K, Metastable liquid, Closed cell (Static) method	–	0.01123 kPa
346.73 K, Crystal, Closed cell (Static) method	–	0.00911 kPa
348.72 K, Crystal, Closed cell (Static) method	–	0.01103 kPa
348.73 K, Metastable liquid, Closed cell (Static) method	–	0.01314 kPa
350.68 K, Metastable liquid, Closed cell (Static) method	–	0.01523 kPa
350.7 K, Crystal, Closed cell (Static) method	–	0.01345 kPa
352.63 K, Metastable liquid, Closed cell (Static) method	–	0.01755 kPa
354.6 K, Metastable liquid, Closed cell (Static) method	–	0.02014 kPa
356.63 K, Closed cell (Static) method, Liquid	–	0.02334 kPa
358.57 K, Closed cell (Static) method, Liquid	–	0.02665 kPa
360.48 K, Closed cell (Static) method, Liquid	–	0.03073 kPa
362.45 K, Closed cell (Static) method, Liquid	–	0.03517 kPa
364.45 K, Closed cell (Static) method, Liquid	–	0.04012 kPa
366.47 K, Closed cell (Static) method, Liquid	–	0.04555 kPa
368.43 K, Closed cell (Static) method, Liquid	–	0.05205 kPa
370.37 K, Closed cell (Static) method, Liquid	–	0.05931 kPa
372.38 K, Closed cell (Static) method, Liquid	–	0.06765 kPa
374.32 K, Closed cell (Static) method, Liquid	–	0.07665 kPa
376.51 K, Closed cell (Static) method, Liquid	–	0.08673 kPa
378.22 K, Closed cell (Static) method, Liquid	–	0.09764 kPa
380.28 K, Closed cell (Static) method, Liquid	–	0.1104 kPa
382.26 K, Closed cell (Static) method, Liquid	–	0.1243 kPa
[2], 298.15 K, Crystal	23.8	–
[2], 375.81 K, Liquid	17.9	–

Details	Normal melting temperature [°C]
Crystal, DTA	82.6
